Laboratory results taken from publication PMC6934184, “Selective DNA-PKcs inhibition extends the therapeutic index of localized radiotherapy and chemotherapy” (The Journal of Clinical Investigation, 2019).

Target: T1, RET V804M (Homo sapiens, UniProt P07949, V804M)
T1 construct: purchased Thermo Fisher Scientific (Life Technologies) SelectScreen
Experiment: SelectScreen LanthaScreen
Format: binding
Conditions: read-out: % displacement
In short: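 NU5455 was profiled across the SelectScreen Broad panel of kinase activity and binding assays. Z'LYTE reactions such as CSF1R ran at apparent Km ATP, while the Adapta CAMK1 assay used ATP listed as 10. Values are given as percent.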

T1 sequence (P07949 29-1114 V804M): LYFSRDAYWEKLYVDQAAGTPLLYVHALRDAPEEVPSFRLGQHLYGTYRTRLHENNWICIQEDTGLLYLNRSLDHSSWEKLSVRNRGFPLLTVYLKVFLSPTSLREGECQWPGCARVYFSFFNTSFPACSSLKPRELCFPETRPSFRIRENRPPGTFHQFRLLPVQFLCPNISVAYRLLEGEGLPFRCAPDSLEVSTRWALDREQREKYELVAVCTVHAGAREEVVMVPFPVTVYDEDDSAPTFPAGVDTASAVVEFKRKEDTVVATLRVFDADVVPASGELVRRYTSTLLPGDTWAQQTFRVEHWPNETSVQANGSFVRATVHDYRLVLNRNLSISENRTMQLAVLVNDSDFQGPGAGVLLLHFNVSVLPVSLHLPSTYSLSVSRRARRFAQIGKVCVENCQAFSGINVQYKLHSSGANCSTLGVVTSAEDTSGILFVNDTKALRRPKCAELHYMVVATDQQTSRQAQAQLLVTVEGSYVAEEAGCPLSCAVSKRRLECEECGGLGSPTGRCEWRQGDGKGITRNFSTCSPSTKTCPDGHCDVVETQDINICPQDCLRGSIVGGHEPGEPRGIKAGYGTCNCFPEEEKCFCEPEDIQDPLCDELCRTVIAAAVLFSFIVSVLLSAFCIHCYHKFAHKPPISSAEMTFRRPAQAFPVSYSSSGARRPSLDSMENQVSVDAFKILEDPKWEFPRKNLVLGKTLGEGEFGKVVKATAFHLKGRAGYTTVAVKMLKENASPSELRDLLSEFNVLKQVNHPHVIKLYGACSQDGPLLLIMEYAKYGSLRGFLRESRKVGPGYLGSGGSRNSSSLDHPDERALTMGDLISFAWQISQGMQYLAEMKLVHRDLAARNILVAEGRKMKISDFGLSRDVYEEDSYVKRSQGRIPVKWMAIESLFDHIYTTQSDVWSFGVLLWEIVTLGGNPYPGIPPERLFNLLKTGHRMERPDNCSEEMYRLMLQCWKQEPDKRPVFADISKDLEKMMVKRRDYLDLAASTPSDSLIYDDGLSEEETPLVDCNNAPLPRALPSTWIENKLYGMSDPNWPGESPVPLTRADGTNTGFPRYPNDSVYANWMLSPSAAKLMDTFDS

**Q.** CN(C(=O)CN1CCOCC1)c1ccc2sc3c(-c4cccc5c(=O)cc(N6CC7CCC(C6)O7)oc45)cccc3c2c1 [NU5455] was tested. Which inhibition at 1 µM did it give?
**A.** The inhibition at 1 µM was 11.3%.
